Assays:
kappa opioid receptor = kappa opioid receptor (Homo sapiens, UniProt P41145); assay: Filtration binding assay: kappa opioid receptor
mu opioid receptor = mu opioid receptor (Homo sapiens, UniProt P35372); assay: Filtration binding assay: mu opioid receptor
Sequence of mu opioid receptor (P35372 whole entry): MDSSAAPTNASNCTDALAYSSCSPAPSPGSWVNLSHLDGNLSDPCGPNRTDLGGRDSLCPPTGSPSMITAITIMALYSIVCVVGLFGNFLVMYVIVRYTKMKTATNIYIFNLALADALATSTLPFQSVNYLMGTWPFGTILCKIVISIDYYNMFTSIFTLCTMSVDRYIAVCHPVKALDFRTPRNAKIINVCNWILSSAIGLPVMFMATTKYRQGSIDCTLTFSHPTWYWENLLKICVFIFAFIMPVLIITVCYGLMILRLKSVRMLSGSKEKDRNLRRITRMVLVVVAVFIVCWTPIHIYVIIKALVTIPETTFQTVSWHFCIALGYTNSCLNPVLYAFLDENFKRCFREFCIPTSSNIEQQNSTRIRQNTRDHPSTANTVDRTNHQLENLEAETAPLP

Sequence of kappa opioid receptor (P41145 whole entry): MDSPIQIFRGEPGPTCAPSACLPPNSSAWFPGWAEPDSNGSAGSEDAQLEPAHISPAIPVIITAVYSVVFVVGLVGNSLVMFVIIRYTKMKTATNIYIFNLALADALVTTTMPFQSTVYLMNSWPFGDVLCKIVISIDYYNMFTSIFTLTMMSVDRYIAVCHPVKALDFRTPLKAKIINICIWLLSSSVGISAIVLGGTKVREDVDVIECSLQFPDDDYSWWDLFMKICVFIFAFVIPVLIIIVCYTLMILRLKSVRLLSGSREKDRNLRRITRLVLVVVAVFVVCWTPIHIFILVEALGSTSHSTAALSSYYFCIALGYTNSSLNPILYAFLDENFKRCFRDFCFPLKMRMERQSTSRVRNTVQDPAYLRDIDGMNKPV

Row | Compound | IC50 (kappa opioid receptor) | IC50 (mu opioid receptor) | Ki (mu opioid receptor)
1 | COc1ccc(CNC[C@H](O)CN2CN(c3ccc(F)cc3)C3(CCN(C4Cc5cccc6cccc4c56)CC3)C2=O)cc1OC (mixture of isomers) [compound 307] | 210 nM | 750 nM | 
2 | O=C1N(C[C@@H](O)CN(CCc2ccccc2)Cc2ccccc2)CN(c2ccc(F)cc2)C12CCN(C1Cc3cccc4cccc1c34)CC2 (mixture of isomers) [compound 313] | 500 nM | 330 nM | 
3 | O=C1N(C[C@@H](O)CNCc2cc(C(F)(F)F)cc(C(F)(F)F)c2)CN(c2ccc(F)cc2)C12CCN(C1Cc3cccc4cccc1c34)CC2 (mixture of isomers) [compound 319] | 580 nM | 320 nM | 
4 | COc1cc(CNC[C@H](O)CN2CN(c3ccc(F)cc3)C3(CCN(C4Cc5cccc6cccc4c56)CC3)C2=O)cc(OC)c1OC (mixture of isomers) [compound 320] | 120 nM | 340 nM | 
5 | COc1cc(CNC[C@H](O)CN2CN(c3ccc(F)cc3)C3(CCN(C4Cc5cccc6cccc4c56)CC3)C2=O)cc(OC)c1 (mixture of isomers) [compound 324] | 230 nM | 110 nM | 
6 | O=C1N(C[C@@H](O)CN2CCN(c3cccc(C(F)(F)F)c3)CC2)CN(c2ccc(F)cc2)C12CCN(C1Cc3cccc4cccc1c34)CC2 (mixture of isomers) [compound 333] | 390 nM | 240 nM | 
7 | O=C1N(C[C@@H](O)CN2CCN(C(c3ccccc3)c3ccc(Cl)cc3)CC2)CN(c2ccc(F)cc2)C12CCN(C1Cc3cccc4cccc1c34)CC2 (mixture of isomers) [compound 337] | 250 nM | 550 nM | 
8 | CCCCN(CCCC)CCCNC[C@H](O)CN1CN(c2ccc(F)cc2)C2(CCN(C3Cc4cccc5cccc3c45)CC2)C1=O (mixture of isomers) [compound 338] | 140 nM | 740 nM | 
9 | COc1cc(OC)c(CNC[C@H](O)CN2CN(c3ccc(F)cc3)C3(CCN(C4Cc5cccc6cccc4c56)CC3)C2=O)c(OC)c1 (mixture of isomers) [compound 367] | 360 nM | 1860 nM | 
10 | O=C1N(C[C@@H](O)CNCCc2ccccc2)CN(c2ccc(F)cc2)C12CCN(CC1CCCCCCC1)CC2 [Compound #11] | 290 nM | 820 nM | 
11 | O=C1N(C[C@@H](O)CNCc2ccc(C(F)(F)F)cc2)CN(c2ccc(F)cc2)C12CCN(CC1CCCCCCC1)CC2 [Compound #29] | 410 nM | 5410 nM | 
12 | O=C1N(C[C@@H](O)CNCc2cccc(C(F)(F)F)c2)CN(c2ccc(F)cc2)C12CCN(CC1CCCCCCC1)CC2 [Compound #33] | 1160 nM | > 10000 nM | 
13 | COc1cc(CNC[C@H](O)CN2CN(c3ccc(F)cc3)C3(CCN(CC4CCCCCCC4)CC3)C2=O)cc(OC)c1OC [Compound #43] | 320 nM | 540 nM | 
14 | O=C1N(C[C@@H](O)CNCc2ccccc2Br)CN(c2ccc(F)cc2)C12CCN(CC1CCCCCCC1)CC2 [Compound #44] | 160 nM | 1130 nM | 
15 | O=C1N(C[C@@H](O)CN2CCc3ccccc3C2)CN(c2ccc(F)cc2)C12CCN(CC1CCCCCCC1)CC2 [Compound #72] | 790 nM | 1840 nM | 
16 | CCCCN(Cc1ccccc1)C[C@H](O)CN1CN(c2ccc(F)cc2)C2(CCN(Cc3c(C)c(C)c(C)c(C)c3C)CC2)C1=O [Compound #280, 3-[3-(Benzyl-butyl-amino)-2-(S)-hydroxy-propyl]-1-(4-fluoro-phenyl)-8-pentamethylphenylmethyl-1,3,8-triaza-spiro[4.5]decan-4-one] | 1080 nM | 2520 nM | 
17 | Cc1cccc2cccc(CN3CCC4(CC3)C(=O)N(C[C@H](O)CN(C)C)CN4c3ccc(F)cc3)c12 [Compound #441, 3-(3-Dimethylamino-2-(R)-hydroxy-propyl)-1-(4-fluoro-phenyl)-8-(8-methyl-naphthalen-1-ylmethyl)-1,3,8-triaza-spiro[4.5]decan-4-one] | > 10000 nM | > 10000 nM | 
18 | CCCCN(Cc1ccccc1)C[C@H](O)CN1CN(c2ccc(F)cc2)C2(CCN(Cc3c(Cl)cccc3C(F)(F)F)CC2)C1=O [Compound #456, 3-[3-(Benzyl-butyl-amino)-2-(S)-hydroxy-propyl]-8-(2-chloro-6-trifluoromethyl-benzyl)-1-(4-fluoro-phenyl)-1,3,8-triaza-spiro[4.5]decan-4-one] | > 10000 nM | > 10000 nM | 

Row | Compound | IC50 (kappa opioid receptor) | IC50 (mu opioid receptor) | Ki (mu opioid receptor)
19 | CNC[C@@H](O)CN1CN(c2ccc(F)cc2)C2(CCN(Cc3cccc4cccc(C)c34)CC2)C1=O [Compound #660, 1-(4-Fluoro-phenyl)-3-(2-(R)-hydroxy-3-methylamino-propyl)-8-(8-methyl-naphthalen-1-ylmethyl)-1,3,8-triaza-spiro[4.5]decan-4-one] |  |  | 870 nM
20 | O=C1N(C[C@@H](O)CNc2ccc(-c3ccccc3)cc2)CN(c2ccc(F)cc2)C12CCN(CC1CCCCCCC1)CC2 [compound 9] | 1400 nM | 940 nM | 
21 | O=C1N(C[C@@H](O)CNCc2cc(F)ccc2F)CN(c2ccc(F)cc2)C12CCN(CC1CCCCCCC1)CC2 [compound 12] | 200 nM | 520 nM | 
22 | O=C1N(C[C@@H](O)CN2C=CCC2)CN(c2ccc(F)cc2)C12CCN(CC1CCCCCCC1)CC2 [compound 70] |  | 630 nM | 
23 | CN(C)c1ccc(CNC[C@@H](O)CN2CN(c3ccccc3)C3(CCN(CCc4ccccc4-c4cccs4)CC3)C2=O)cc1 [compound 139] |  | 103 nM | 
24 | O=C1N(C[C@H](O)CNCCc2cc3ccc(F)cc3[nH]2)CN(c2ccccc2)C12CCN(CCc1ccccc1-c1cccs1)CC2 [compound 142] |  | 104 nM | 
25 | COc1ccc(CCNC[C@@H](O)CN2CN(c3ccccc3)C3(CCN(CCc4ccccc4-c4cccs4)CC3)C2=O)cc1 [compound 145] |  | 104 nM | 
26 | O=C1N(C[C@@H](O)CN(CCc2ccccc2)Cc2ccccc2)CN(c2ccccc2)C12CCN(CCc1ccccc1-c1cccs1)CC2 [compound 230] |  | 152 nM | 
27 | O=C1N(C[C@@H](O)CNCCN2CCOCC2)CN(c2ccc(F)cc2)C12CCN(Cc1ccc3ccccc3c1)CC2 [compound 259] |  | 500 nM | 
28 | O=C1N(C[C@@H](O)CNCCc2ccc3c(c2)OCO3)CN(c2ccc(F)cc2)C12CCN(Cc1ccc3ccccc3c1)CC2 [compound 262] |  | 850 nM | 
29 | COc1ccc(CCN(C)C[C@H](O)CN2CN(c3ccc(F)cc3)C3(CCN(Cc4ccc5ccccc5c4)CC3)C2=O)cc1OC [compound 263] |  | 590 nM | 
30 | O=C1N(C[C@H](O)CNCCc2ccc3c(c2)OCO3)CN(c2ccc(F)cc2)C12CCN(Cc1ccc(Cl)cc1)CC2 [compound 268] |  | 950 nM | 
31 | COc1cc(CCNC[C@@H](O)CN2CN(c3ccc(F)cc3)C3(CCN(Cc4ccc(Cl)cc4)CC3)C2=O)c([N+](=O)[O-])cc1OC [compound 269] |  | 2490 nM | 
32 | COc1ccc(CCN(C)C[C@H](O)CN2CN(c3ccc(F)cc3)C3(CCN(Cc4ccc(Cl)cc4)CC3)C2=O)cc1OC [compound 270] |  | 410 nM | 
33 | O=C1N(C[C@@H](O)CN(Cc2ccccc2)C[C@@H]2CCCC[C@@H]2O)CN(c2ccc(F)cc2)C12CCN(CC1CCCCCCC1)CC2 [compound 290] |  | 930 nM | 
34 | CNCCNC[C@@H](O)CN1CN(c2ccc(F)cc2)C2(CCN(Cc3cccc4cccc(C)c34)CC2)C1=O [compound 661] |  |  | 800 nM
35 | Cc1cccc2cccc(CN3CCC4(CC3)C(=O)N(C[C@H](O)CN3CC[C@@H](N(C)C)C3)CN4c3ccc(F)cc3)c12 [compound 708] |  |  | 490 nM
36 | Cc1cccc2cccc(CN3CCC4(CC3)C(=O)N(C[C@H](O)CN3CCC(O)C3)CN4c3ccc(F)cc3)c12 (some centres unmarked) [compound 712] |  |  | 1950 nM
